Values joined by “and” are separate entries in the source; they are usually repeats but may differ in a detail not shown here. Equal entries are not always repeated. “Also recorded” adds a separate entry of the source.
What was measured:
Type in all cases: in vivo, mouse
[1] = test system: Pten^pc−/−; Zbtb7a^pc−/− prostate tumors; test: Tumor growth by MRI in Pten^pc−/−; Zbtb7a^pc−/− mice under drug or antibody treatment; conditions: for tumor volume: Pten-Zbtb7a, individual mice
Method: Mice were allocated at random to experimental groups and studies were performed in an unblended manner. For treatment with the CXCR2 antagonist, SB225002 (Cayman Chemical #13336) was dissolved in DMSO (10 mg/ml) and diluted in vehicle (0.9% NaCl, 0.3% Tween 80) for in vivo administration. Mice (4 months of age) were treated daily for 10 days by intraperitoneal injection (5 mg/kg) and prostate tumor tissue (anterior lobes) was subjected to Flow Cytometry and histological analysis. For MRI analysis, mice (4 months of age) were treated daily for 21 days (Pten^pc−/−; Zbtb7a^pc−/−), for 14 days (Pten^pc−/−; Trp53^pc−/−) or for 14 days (Pten^pc−/−; Pml^pc−/−) by intraperitoneal injection (5 mg/kg). For depletion of Gr-1+/CD11b+ cells, Ly6G-depletion antibody (1A8, BioXcell) and control Rat IgG2a antibody (BioXcell) were diluted in phosphate-buffered saline (PBS) for in vivo administration. Mice (4 months of age) were treated every other day for 10 days by intraperitoneal injection (200-300 μg/mouse). InVivoMAb anti-mouse Ly6G/Ly6C (Gr-1) antibody, clone RB6-8C5 (BE0075, BioXcell), and control Rat IgG2b antibody (BE0090, BioXcell) were diluted in PBS and Pten^pc−/−; Trp53^pc−/− mice were treated every other day for 14 days by intraperitoneal injection (200 μg/mouse). For neutralization of CXCL5, anti-Mouse CXCL5 antibody (Leinco Technologies) and control Rat IgG2a antibody (BioXcell) were diluted in PBS and injected every other day for 21 days by intraperitoneal injection (20 μg/mouse). Tumor volume quantification was performed by using VivoQuant and Image J software. All mouse prostate MRI imaging analysis was performed at Small Animal Imaging Core at BIDMC and acquired on an ASPECT Model M2 1T tabletop scanner.

[2] = test system: Pten^pc−/−; Zbtb7a^pc−/− prostate tumors; test: Flow cytometry of immune infiltrate in treated Pten^pc−/−; Zbtb7a^pc−/− prostate tumors; conditions: Zbtb7a^pc−/− prostate tumors after treatment
Method: (§1) Mice were allocated at random to experimental groups and studies were performed in an unblended manner. For treatment with the CXCR2 antagonist, SB225002 (Cayman Chemical #13336) was dissolved in DMSO (10 mg/ml) and diluted in vehicle (0.9% NaCl, 0.3% Tween 80) for in vivo administration. Mice (4 months of age) were treated daily for 10 days by intraperitoneal injection (5 mg/kg) and prostate tumor tissue (anterior lobes) was subjected to Flow Cytometry and histological analysis. For MRI analysis, mice (4 months of age) were treated daily for 21 days (Pten^pc−/−; Zbtb7a^pc−/−), for 14 days (Pten^pc−/−; Trp53^pc−/−) or for 14 days (Pten^pc−/−; Pml^pc−/−) by intraperitoneal injection (5 mg/kg). For depletion of Gr-1+/CD11b+ cells, Ly6G-depletion antibody (1A8, BioXcell) and control Rat IgG2a antibody (BioXcell) were diluted in phosphate-buffered saline (PBS) for in vivo administration. Mice (4 months of age) were treated every other day for 10 days by intraperitoneal injection (200-300 μg/mouse). […] Tumor volume quantification was performed by using VivoQuant and Image J software. […]
(§2) For Flow Cytometry, spleen and lymph node single cell suspensions were prepared by mashing the tissue in 2% FBS/PBS. […] All staining mixtures were analyzed on a BD LSR II flow cytometer (Becton Dickinson). Resulting profiles were further processed and analyzed using the FlowJo 8.7 software.

[3] = test system: Pten^pc−/−; Pml^pc−/− prostate tumors; test: Flow cytometry of immune infiltrate in treated Pten^pc−/−; Pml^pc−/− prostate tumors; conditions: Pml^pc−/− prostate tumors after treatment
Method: as §1, §2

`O=C(Nc1ccc([N+](=O)[O-])cc1O)Nc1ccccc1Br` [SB225002] was tested, and the tumor volume ([1]; CXCR2i (SB225002 5 mg/kg i.p. daily), row 0 = day 0 baseline, MRI) was 54.248 mm3 and 79.3701 mm3 and 59.2774 mm3, the tumor volume ([1]; CXCR2i, row 1 (weekly MRI)) was 44.3115 mm3 and 67.9688 mm3 and 65.0879 mm3 and the tumor volume ([1]; CXCR2i, row 2 (weekly MRI)) was 41.1865 mm3 and 68.9697 mm3 and 58.6914 mm3. The tumor volume ([1]; CXCR2i, row 3 (weekly MRI, 3 weeks on treatment)) was 42.1142 mm3 and 71.3379 mm3 and 66.0889 mm3, the tumor growth ([1]; Pten^pc−/−, Zbtb7a^pc−/− mice, versus vehicle or control IgG) was “significantly suppressed the tumor growth; also recorded: significant inhibition of tumor growth” and the “intra-tumoral Gr-1+/CD11b+ cells” value [2] was “decrease of Gr-1+/CD11b+ cells”. For the same compound, the “intra-tumoral Gr-1+/CD11b+ cells” value [3] was “decrease of Gr-1+/CD11b+ cells”.

— patent US20210301349A1, “COMPOSITIONS AND METHODS FOR TREATING A TUMOR SUPPRESSOR DEFICIENT CANCER” (BETH ISRAEL DEACONESS MEDICAL CENTER, INC., priority 2016, published 2021)
